Structures can show the parent of a compound that is named as a salt. Where two headings read alike, the source gives them in different places.
Columns and labels:
Format in all cases: in vivo
[1] = Anorexiant activity, food consumption method in the rat, oral (ED50); conditions: for ED50: read-out: B anorexiant activity ED50; for anorexiant activity (in words): oral
Protocol: (§1) The anorexiant activity was assessed by the food consumption method in the rat. Female rats weighing 200 g were used, trained for 10 days to eat during a period of 4 hours and selected on the eighth day. After the tenth day, the randomized animals were divided into a "control group", treated solely with the carrier, and into several "treated groups". The treatment was effected by the intraperitoneal route 30 minutes before the presentation of food and the quantity of food consumed in the course of the first hour was then measured. The data in Table I indicate the percentage of inhibition of the food consumption of the animals treated with the compounds according to the present invention with respect to the controls.
The anorexiant activity by the oral route of a product according to the present invention, 4-amino-1-(6-chloro-2-pyridyl)piperidine in the form of mono hydrochloride (CM 57227, compound of Example 1), was tested in accordance with the food consumption method described hereinabove; as well known anorexiant product, fenfluramine, as well as 1-(6-chloro-2-pyridyl)piperazine in the form of monohydrochloride, described in U.S. Pat. No. 4,078,063, and 1-(6-chloro-2-pyrazinyl) piperazine in monohydrochloride form, described in British Pat. No. 1,492,528, were used as reference products.
the anorexiant activity, expressed as oral dose inhibiting by 50% the food consumption (ED50, data B);

[2] = Locomotor activity in the rat, oral (inhibition of spontaneous motility, photoelectric cell); conditions: for ED50 at 0.5 h / selectivity ratio: in vivo; for ED50 at 0.5 h: female rats, oral dose inhibiting spontaneous motility by 50%, pulses during 10 minutes, 30 minutes after treatment, read-out: C locom. act. inhibition ID50; for selectivity ratio: ratio locomotor ID50 / anorexiant ED50 (therapeutic index), read-out: C/B; for selectivity ratio / inhibition of locomotor activity (in words): oral; for inhibition of locomotor activity (in words): relative to anorexiant ED50
Protocol: The products were also assessed as a function of their action on the locomotor activity in the rat. To this end, female rats weighing about 200 g were used, to which the compounds were administered by the oral route. After 30 minutes, the treated animals were placed in a cage (80×80 cm) provided with a photoelectric cell for measuring the spontaneous movements, and the number of pulses transmitted to the cell for 10 minutes was recorded. The inhibition of the locomotor activity of each substance (6 to 10 animals per dose) was expressed as a percentage with respect to the controls.
the action on the locomotor activity, expressed as oral dose inhibiting by 50% the spontaneous motility, namely the number of pulses transmitted to the photoelectric cell during the 10 minutes (ID50, data C);

[3] = Acute toxicity, LD50 in the rat by the oral route; conditions: in vivo; for selectivity ratio: ratio acute toxicity LD50 / anorexiant ED50 (therapeutic index), read-out: A/B
Excerpt: (§2) the acute toxicity, expressed at LD50 in the rat by the oral route (data A);

male mice = assay: Acute toxicity, zone of mortality, mice, intraperitoneal; conditions: i.p., 48 h observation, doses with lowest (at least 1 death) and highest mortality
Protocol: With respect to their degree of activity, the 4-amino-1-(2-pyridyl)piperidines of the present invention are sparingly toxic and present a good therapeutic index. In Table I hereinbelow, the acute toxicity is expressed in the form of "zone of mortality". 6 batches of male mice weighing about 20 g were used, in which were injected the compounds of the present invention, dissolved or suspended in carboxymethylcellulose, by the intraperitoneal route, at at least four doses for each batch of animals. […] The "mortality zone" is represented by the doses at which the lowest mortality (at least 1 death) and the highest are observed.

cerebral serotonin = assay: Cerebral levels of serotonin after intraperitoneal administration in the rat; conditions: for Cerebral levels of serotonin % with respect to controls: 60 minutes before sacrifice
Protocol: Table III below summarises the cerebral levels of serotonin after intraperitoneal administration in the rat of a compound according to the present invention, 4-amino-1-(6-chloro-2-pyridyl) piperidine in monohydrochloride form (CM 57227, product of Example 1). Fenfluramine was used as reference product.
The animals were treated 60 minutes before sacrifice.

[4] = Anorexiant activity, food consumption method in the rat, intraperitoneal; conditions: female rats, i.p., food consumed in first hour, vs controls
Protocol: as §1

rat = assay: Acute toxicity, LD50 in the rat by the oral route
Excerpt: as §2

| SMILES | ED50 ([1]; Rattus norvegicus, po) | ED50 at 0.5 h [2] | selectivity ratio [2] | inhibition of locomotor activity (in words) [2] | LD50 [3] | selectivity ratio [3] | Mortality zone (male mice) | further results |
| --- | --- | --- | --- | --- | --- | --- | --- | --- |
| Clc1cncc(N2CCNCC2)n1 [1-(6-chloro-2-pyrazinyl)piperazine HCl, 1-(6-chloro-2-pyrazinyl) piperazine] | 1.7 mg/kg | 0.6 mg/kg | 0.3 | inhibit the locomotor activity at doses even lower than the anorexiant ED50 | 79.6 mg/kg | 46.8 | – | anorexiant activity (in words) ([1]; rat): very active as anorexiants |
| Clc1cccc(N2CCNCC2)n1 [1-(6-chloro-2-pyridyl)piperazine HCl, 1-(6-chloro-2-pyridyl)piperazine] | 3.6 mg/kg | 2.1 mg/kg | 0.58 | inhibit the locomotor activity at doses even lower than the anorexiant ED50 | 174 mg/kg | 48.3 | – | anorexiant activity (in words) ([1]; rat): very active as anorexiants |
| NC1CCN(c2cccc(Cl)n2)CC1 [CM 57227, 4-amino-1-(6-chloro-2-pyridyl) piperidine] | – | 60 mg/kg | 7.7 | – | 190 mg/kg | 24.3 | 100 to 150 mg/kg | ED50 ([1]; rat, oral dose inhibiting food consumption by 50%): 7.8 mg/kg; Cerebral levels of serotonin % with respect to controls (cerebral serotonin; 5 mg/kg i.p.): 105%; Cerebral levels of serotonin % with respect to controls (cerebral serotonin; 10 mg/kg i.p.): 120%; Food consumption % inhibition ([4]; 10 mg/kg): 70.8% |
| COc1cccc(N2CCC(N)CC2)n1 [CM 57366, 4-amino-1-(6-methoxy-2-pyridyl) piperidine] | – | – | – | – | – | – | 150 to 200 mg/kg | Food consumption % inhibition ([4]; 30 mg/kg): 67.0% |
| NC1CCN(c2cccc(Sc3ccccc3)n2)CC1 [CM 57369, 4-amino-1-(6-phenylthio-2-pyridyl)piperidine] | – | – | – | – | – | – | 150 to 200 mg/kg | Food consumption % inhibition ([4]; 40 mg/kg): 95.2% |
| Cc1cccc(N2CCC(N)CC2)n1 [CM 57371, 4-amino-1-(6-methyl-2-pyridyl)piperidine] | – | – | – | – | – | – | 175 to 225 mg/kg | Food consumption % inhibition ([4]; 40 mg/kg): 77.2% |
| NC1CCN(c2cccc(Br)n2)CC1 [CM 57373, 4-amino-1-(6-bromo-2-pyridyl) piperidine] | – | – | – | – | – | – | 100 to 175 mg/kg | Food consumption % inhibition ([4]; 20 mg/kg): 89.8% |
| NC1CCN(c2cccc(OCC(F)(F)F)n2)CC1 [CM 57385, 4-amino-1-[6-(2,2,2-trifluoro)ethoxy-2-pyridyl] piperidine] | – | – | – | – | – | – | 150 to 250 mg/kg | Food consumption % inhibition ([4]; 30 mg/kg): 78.2% |
| CCNC(C)Cc1cccc(C(F)(F)F)c1 (centres unmarked) [fenfluramine] | 4 mg/kg | 12 mg/kg | 3 | much greater inhibiting action on the locomotor activity | – | 25.2 | – | A Acute toxicity LD50 (rat): 100.9 mg/kg; therapeutic index A/B, comparison (in words) (rat): almost equal to that of the 4-amino-1-(6-chloro-2-pyridyl)piperidine of the present invention; Cerebral levels of serotonin % with respect to controls (cerebral serotonin; 3.75 mg/kg i.p., * significant: p < 0.01): 69%; Cerebral levels of serotonin % with respect to controls (cerebral serotonin; 7.5 mg/kg i.p., * significant: p < 0.01): 51%; Cerebral levels of serotonin % with respect to controls (cerebral serotonin; 15 mg/kg i.p., * significant: p < 0.01): 42%; cerebral levels of serotonin (in words) (cerebral serotonin; i.p., anorexiant or equivalent doses): causes a significant reduction in cerebral serotonin |

From patent publication US4409228A, “Andrexiant aminopiperidines intermediates thereto and drugs containing same” (Sanofi, priority 1979, dated 1983)
